Measurements as given in patent US12209087B2, “AKT1 modulators” (Alterome Therapeutics, Inc., priority 2022, dated 2025).

Molecular target: T1, full length AKT E17K (Homo sapiens, UniProt P31749, E17K)
T1 construct: host or cells: HEK-293 (ATCC CRL-1573)
Test: NanoBRET Target Engagement (TE) Assay
Type: cell-based
Conditions: competitive displacement of tracer in cells, read-out: AKT1 E17K IC50
Method in brief: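 Compound and tracer incubated 2 h before luminescence at donor 450 nm and acceptor 600 nm, with extracellular signal inhibited. EC50 by sigmoidal variable-slope regression.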

T1 sequence (P31749 whole entry E17K): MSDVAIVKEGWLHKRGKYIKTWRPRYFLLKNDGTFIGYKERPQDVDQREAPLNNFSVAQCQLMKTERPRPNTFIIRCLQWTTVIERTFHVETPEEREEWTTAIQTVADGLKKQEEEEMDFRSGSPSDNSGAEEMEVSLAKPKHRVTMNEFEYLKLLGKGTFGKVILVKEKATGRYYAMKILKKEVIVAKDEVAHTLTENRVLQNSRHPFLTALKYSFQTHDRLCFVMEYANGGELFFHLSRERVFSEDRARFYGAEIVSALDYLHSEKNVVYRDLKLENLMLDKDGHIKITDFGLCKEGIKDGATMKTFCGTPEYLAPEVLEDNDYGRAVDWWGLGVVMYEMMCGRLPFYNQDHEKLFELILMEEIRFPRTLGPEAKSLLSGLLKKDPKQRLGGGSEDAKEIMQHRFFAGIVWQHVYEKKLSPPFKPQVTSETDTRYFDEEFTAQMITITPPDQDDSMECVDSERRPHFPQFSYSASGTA

| Structure (SMILES) | IC50 [nM] |
| --- | --- |
| N#Cc1ccc(-c2ccc3nc(-c4cccnc4N)n(-c4ccc(CN5CCC(Nc6ccnc(C#N)n6)CC5)cc4)c3n2)cc1 [Example 320, 4-((1-(4-(2-(2-Aminopyridin-3-yl)-5-(4-cyanophenyl)-3H-imidazo[4,5-b]pyridin-3-yl)benzyl)piperidin-4-yl)amino)pyrimidine-2-carbonitrile] | < 15 |
| N#Cc1ccc(-c2ccc3nc(-c4cccnc4N)n(-c4ccc(CN5CCC(Nc6nccc(C#N)n6)CC5)cc4)c3n2)cc1 [Example 321, 2-((1-(4-(2-(2-Aminopyridin-3-yl)-5-(4-cyanophenyl)-3H-imidazo[4,5-b]pyridin-3-yl)benzyl)piperidin-4-yl)amino)pyrimidine-4-carbonitrile] | 60 to 600 |
| N#Cc1ccnc(N2CCN(Cc3ccc(-n4c(-c5cccnc5N)nc5ccc(-c6ccccc6C#N)nc54)cc3)CC2)n1 [Example 322, 2-(4-(4-(2-(2-Aminopyridin-3-yl)-5-(2-cyanophenyl)-3H-imidazo[4,5-b]pyridin-3-yl)benzyl)piperazin-1-yl)pyrimidine-4-carbonitrile] | 15 to 60 |
| N#Cc1nccc(NC2CCN(Cc3ccc(-n4c(-c5cccnc5N)nc5ccc(N6CCNC(=O)CC6)nc54)cc3)CC2)n1 [Example 323, 4-((1-(4-(2-(2-Aminopyridin-3-yl)-5-(5-oxo-1,4-diazepan-1-yl)-3H-imidazo[4,5-b]pyridin-3-yl)benzyl)piperidin-4-yl)amino)pyrimidine-2-carbonitrile] | 600 to 10000 |
| N#Cc1nccc(N2CCN(Cc3ccc(-n4c(-c5cccnc5N)nc5ccc(-c6ccccc6Cl)nc54)cc3)CC2)n1 [Example 324, 4-(4-(4-(2-(2-Aminopyridin-3-yl)-5-(2-chlorophenyl)-3H-imidazo[4,5-b]pyridin-3-yl)benzyl)piperazin-1-yl)pyrimidine-2-carbonitrile] | < 15 |
| N#Cc1ccnc(N2CCN(Cc3ccc(-n4c(-c5cccnc5N)nc5ccc(-c6ccccc6Cl)nc54)cc3)CC2)n1 [Example 325, 2-(4-(4-(2-(2-Aminopyridin-3-yl)-5-(2-chlorophenyl)-3H-imidazo[4,5-b]pyridin-3-yl)benzyl)piperazin-1-yl)pyrimidine-4-carbonitrile] | 15 to 60 |
| N#Cc1cc(N2CCN(Cc3ccc(-n4c(-c5cccnc5N)nc5ccc(-c6ccccc6Cl)nc54)cc3)CC2)ncn1 [Example 326, 6-(4-(4-(2-(2-Aminopyridin-3-yl)-5-(2-chlorophenyl)-3H-imidazo[4,5-b]pyridin-3-yl)benzyl)piperazin-1-yl)pyrimidine-4-carbonitrile] | 15 to 60 |
| N#Cc1ncc(C(=O)N2CCN(Cc3ccc(-n4c(-c5cccnc5N)nc5ccc(-c6ccccc6)nc54)cc3)CC2)s1 [Example 327, 5-(4-(4-(2-(2-Aminopyridin-3-yl)-5-phenyl-3H-imidazo[4,5-b]pyridin-3-yl)benzyl)piperazine-1-carbonyl)thiazole-2-carbonitrile] | 60 to 600 |
| N#Cc1ncnc(N2CCN(Cc3ccc(-n4c(-c5cccnc5N)nc5ccc(-c6ccccc6)nc54)cc3)CC2)n1 [Example 328, 4-(4-(4-(2-(2-aminopyridin-3-yl)-5-phenyl-3H-imidazo[4,5-b]pyridin-3-yl)benzyl)piperazin-1-yl)-1,3,5-triazine-2-carbonitrile] | < 15 |
| N#Cc1nccc(N2CCN(Cc3ccc(-n4c(-c5cccnc5N)nc5ccc(C6=CCCCC6)nc54)cc3)CC2)n1 [Example 329, 4-(4-(4-(2-(2-Aminopyridin-3-yl)-5-(cyclohex-1-en-1-yl)-3H-imidazo[4,5-b]pyridin-3-yl)benzyl)piperazin-1-yl)pyrimidine-2-carbonitrile] | 15 to 60 |
| N#Cc1nccc(N2CCN(Cc3ccc(-n4c(-c5cccnc5N)nc5ccc(C6=CCOCC6)nc54)cc3)CC2)n1 [Example 330, 4-(4-(4-(2-(2-Aminopyridin-3-yl)-5-(3,6-dihydro-2H-pyran-4-yl)-3H-imidazo[4,5-b]pyridin-3-yl)benzyl)piperazin-1-yl)pyrimidine-2-carbonitrile] | < 15 |
| N#Cc1cccc(-c2ccc3nc(-c4cccnc4N)n(-c4ccc(CN5CCN(c6ccnc(C#N)n6)CC5)cc4)c3n2)c1 [Example 331, 4-(4-(4-(2-(2-Aminopyridin-3-yl)-5-(3-cyanophenyl)-3H-imidazo[4,5-b]pyridin-3-yl)benzyl)piperazin-1-yl)pyrimidine-2-carbonitrile] | < 15 |
| N#Cc1nccc(N2CCN(Cc3ccc(-n4c(-c5cccnc5N)nc5ccc(-c6ccc(=O)[nH]c6)nc54)cc3)CC2)n1 [Example 332, 4-(4-(4-(2-(2-Aminopyridin-3-yl)-5-(6-oxo-1,6-dihydropyridin-3-yl)-3H-imidazo[4,5-b]pyridin-3-yl)benzyl)piperazin-1-yl)pyrimidine-2-carbonitrile] | 600 to 10000 |
| N#Cc1ccnc(N2CCN(Cc3ccc(-n4c(-c5cccnc5N)nc5ccc(-c6cccc(=O)[nH]6)nc54)cc3)CC2)n1 [Example 333, 2-(4-(4-(2-(2-Aminopyridin-3-yl)-5-(6-oxo-1,6-dihydropyridin-2-yl)-3H-imidazo[4,5-b]pyridin-3-yl)benzyl)piperazin-1-yl)pyrimidine-4-carbonitrile] | 15 to 60 |
| N#Cc1cc(N2CCN(Cc3ccc(-n4c(-c5cccnc5N)nc5ccc(-c6cccc(=O)[nH]6)nc54)cc3)CC2)ncn1 [Example 334, 6-(4-(4-(2-(2-Aminopyridin-3-yl)-5-(6-oxo-1,6-dihydropyridin-2-yl)-3H-imidazo[4,5-b]pyridin-3-yl)benzyl)piperazin-1-yl)pyrimidine-4-carbonitrile] | 15 to 60 |
| N#Cc1nccc(NC2CCN(Cc3ccc(-n4c(-c5cccnc5N)nc5ccc(-c6ccccc6C#N)nc54)cc3)CC2)n1 [Example 335, 4-((1-(4-(2-(2-Aminopyridin-3-yl)-5-(2-cyanophenyl)-3H-imidazo[4,5-b]pyridin-3-yl)benzyl)piperidin-4-yl)amino)pyrimidine-2-carbonitrile] | < 15 |
| CN(C(=O)c1ccnc(C#N)n1)C1CCN(Cc2ccc(-n3c(-c4cccnc4N)nc4ccc(-c5ccccc5)nc43)cc2)CC1 [Example 336, N-(1-(4-(2-(2-aminopyridin-3-yl)-5-phenyl-3H-imidazo[4,5-b]pyridin-3-yl)benzyl)piperidin-4-yl)-2-cyano-N-methylpyrimidine-4-carboxamide] | < 15 |
| N#Cc1ncnc(N[C@@H]2CCCN(Cc3ccc(-n4c(-c5cccnc5N)nc5ccc(-c6ccccc6)nc54)cc3)C2)n1 [Example 337, (R)-4-((1-(4-(2-(2-Aminopyridin-3-yl)-5-phenyl-3H-imidazo[4,5-b]pyridin-3-yl)benzyl)piperidin-3-yl)amino)-1,3,5-triazine-2-carbonitrile] | < 15 |
| N#Cc1ncnc(N2C[C@@H]3C[C@H]2CN3Cc2ccc(-n3c(-c4cccnc4N)nc4ccc(-c5ccccc5)nc43)cc2)n1 [Example 338, 4-((1S,4S)-5-(4-(2-(2-Aminopyridin-3-yl)-5-phenyl-3H-imidazo[4,5-b]pyridin-3-yl)benzyl)-2,5-diazabicyclo[2.2.1]heptan-2-yl)-1,3,5-triazine-2-carbonitrile] | 15 to 60 |
| N#Cc1nccc(N2C[C@H]3CN(Cc4ccc(-n5c(-c6cccnc6N)nc6ccc(-c7ccccc7)nc65)cc4)C[C@H]3C2)n1 [Example 339, 4-((3aR,6aS)-5-(4-(2-(2-aminopyridin-3-yl)-5-phenyl-3H-imidazo[4,5-b]pyridin-3-yl)benzyl)hexahydropyrrolo[3,4-c]pyrrol-2(1H)-yl)pyrimidine-2-carbonitrile] | 15 to 60 |
